Laboratory results as given in patent US8092841B2.

How the values were obtained:
ERβ [1] = biological target: T1, ERβ (Homo sapiens, UniProt Q92731); conditions: in the presence of ERβ
Excerpt: (§1) Plasmid Construction. […] ERβ mutants were created with QuikChange site-directed mutagenesis kits (Stratagene), by using oligonucleotides containing the mutation. The mutants were sequenced with Sequenase kits (Amersham Pharmacia) to verify the presence of the mutation.

ERβ [2] = biological target: T1, ERβ; assay: TNF-RE tkLuc repression, U2OS cells with ERβ; format: cell-based; parameters: expressed in transfected cells; host or cells: U2OS (human osteosarcoma)
TNF-RE tkLuc = assay: Activation of TNF-RE tkLuc reporter (Example 2); format: cell-based; conditions: for activation of TNF-RE tkLuc by antiestrogens: in contrast to E2
Excerpt: as §1

breast cancer [3] = conditions: among the 5129 women in the raloxifene treatment group, median follow-up of 40 months; cited from earlier work
breast cancer [4] = conditions: five years of tamoxifen therapy; cited from earlier work
breast cancer [5] = conditions: women at high risk for breast cancer; cited from earlier work

T1 sequence (Q92731 whole entry): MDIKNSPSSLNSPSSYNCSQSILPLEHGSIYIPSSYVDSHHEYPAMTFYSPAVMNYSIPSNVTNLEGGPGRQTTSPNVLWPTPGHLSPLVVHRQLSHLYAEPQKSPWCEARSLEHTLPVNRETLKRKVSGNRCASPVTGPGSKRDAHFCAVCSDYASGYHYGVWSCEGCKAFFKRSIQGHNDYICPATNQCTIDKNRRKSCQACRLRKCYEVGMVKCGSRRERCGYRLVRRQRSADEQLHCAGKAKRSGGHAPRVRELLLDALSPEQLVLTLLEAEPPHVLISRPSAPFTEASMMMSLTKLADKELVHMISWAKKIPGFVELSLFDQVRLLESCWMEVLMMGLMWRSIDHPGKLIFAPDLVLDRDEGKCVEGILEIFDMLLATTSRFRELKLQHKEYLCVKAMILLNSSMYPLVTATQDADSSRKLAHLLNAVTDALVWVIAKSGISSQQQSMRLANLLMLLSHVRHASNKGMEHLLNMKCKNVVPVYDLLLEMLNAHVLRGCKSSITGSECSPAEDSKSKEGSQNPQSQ

## C[C@]12CC[C@@H]3c4ccc(O)cc4CC[C@H]3[C@@H]1CC[C@@H]2O [E2, estradiol]
ERβ [1]
  repression of TNF-α activation of TNF-RE tkLuc: 60-80%
ERβ [2]
  repression of TNF-α activation of TNF-RE: 100%

## C[C@]12CC[C@@H]3c4ccc(O)cc4C[C@@H](CCCCCCCCC[S+]([O-])CCCC(F)(F)C(F)(F)F)[C@H]3[C@@H]1CC[C@@H]2O (stereo partly shown) [ICI 182, 780]
TNF-RE tkLuc
  activation of TNF-RE tkLuc by antiestrogens: 2 fold

## O=C(c1ccc(OCCN2CCCCC2)cc1)c1c(-c2ccc(O)cc2)sc2cc(O)ccc12 [raloxifene]
TNF-RE tkLuc
  activation of TNF-RE tkLuc by antiestrogens: 2 fold
Breast cancer [3]
  cases of breast cancer: 13 cases

## CC/C(=C(\c1ccccc1)c1ccc(OCCN(C)C)cc1)c1ccccc1 [tamoxifen]
TNF-RE tkLuc
  activation of TNF-RE tkLuc by antiestrogens: 2 fold
Breast cancer [4]
  reduction of mortality from breast cancer: 22%
  reduction of the risk of recurrences: 42%
Breast cancer [5]
  reduction of the risk of primary invasive breast cancer: 49%

## TNF-α
TNF-RE tkLuc; TNF-RE tkLuc
  activation of 3 copies of the TNF-RE (−125 to −82) upstream of the tk promoter: 5-10 fold
